In patent publication US9428491B2, “Substituted azoles, antiviral active component, pharmaceutical composition, method for preparation and use thereof” (priority 2010, dated 2016):
Structures can show the parent of a compound that is named as a salt. Where two headings read alike, the source gives them in different places.

How the values were obtained:
[1] = tested on: human hepatoma cell line Huh7; assay: Cytotoxicity in Huh7 cells (ATPLite); type: cell-based; conditions: 96 h incubation, read-out: CC50, nM (gT1b)
Protocol: (§1) Cytotoxicity of the disclosed azoles was tested in experiments in the human hepatoma cell line Huh7. The amount of living cells was determined with the help of ATPLite kit (Perkin Elmer, Boston, USA) in accordance with manufacturer instructions. Cytotoxic action was estimated by seeding the cells into black microplate with transparent bottom (96 wells, 10^4 cells to each well). Three independent repeatings were used for each bis-azole. The tested bis-azoles were added in 18 h, after that the cells were incubated together with the compounds for 96 h. Each well was washed two times with phosphate buffered saline (0.2 ml/well) and then the cells were lysed by addition of cell buffer (50 μl/well) (all mentioned reagents are included in ATPLite kit). The microplate was incubated for 5 min on a rotating platform at 600 r/min, after that 50 μl of substrate solution (a part of ATPLite kit) was added into each well. The microplate was incubated for additional 5 min on a rotating platform at 600 r/min, kept for 10 min in the dark, after that luminescence was measured using TopCount NXT instrument (Packard, Perkin Elmer).
(§2) CC50 Value corresponding to bis-azole concentration at which 50% of cells were ruined was used as quantitative characteristic for cytotoxicity estimation. Calculation of CC50 value: for calculation of inhibition effectiveness (% Inh) the following equation was used: % Inh=[(L^pos−L^ex)/L^pos−L^neg)]*100%, where L^pos—positive control, luminescence in the wells with cells without compounds; L^neg—negative control, luminescence in the wells with medium without cells; L^ex—luminescence in wells with a compound of definite concentration. Then, CC50 values were calculated with the help of XLfit 4 program. Test results for novel azoles of the general formula 1 testify their high (nanomolar) or very high (picomolar) activity.

[2] = tested on: subgenomic RNA-replicon HCV (genotype 1b (gT1b), don Con1); assay: Antiviral activity in Huh7 HCV subgenomic replicon cells, immunoenzymatic assay (IEA); type: cell-based, hepatitis C virus; conditions: Huh7 cells with HCV gT1b replicon, 3 days incubation
Protocol: Antiviral activity of substituted azoles of the general formula 1 was determined in the human hepatoma cell line Huh7, comprising subgenomic RNA-replicon HCV (genotype 1b (gT1b), don Con1). A version of immumoenzymatic assay (IEA) on viral protein NS5A in 96-well plate was used as an experimental method. Cytotoxicity of the compounds was estimated in parallel regime. Cells Huh7 were seeded in 96-well plate (7.5×10^3 cells to each well in 100 μl of culture medium). Solutions of the tested compounds in DMEM medium {DMEM) 1×; Source: Cellgro; Catalogue: 10-013-CV} were prepared immediately before use. Eleven serial three fold dilutions with variation of concentrations from 20 nM to 0.2 pM were prepared. In 4 hours after seeding, serial dilutions of the compounds were added to the cells (100 μl to each well). Final concentration of tested compounds was varied from 10 nM to 0.1 pM, and DMSO—0.5%. If it was necessary, higher concentrations of the disclosed azoles were investigated. Each dilution of the compound was tested on two identical wells. Then the cells were incubated for three days at 37° C./5% CO2 and fixed by addition of acetone/methanol (1:1) mixture in amount of 250 μl/well. In 1 min the cells were washed 3 times with PBS (Phosphate Buffered Saline) solution. Then the cells were blocked by addition of 10% fetal calf serum in PBS solution in amount of 150 μl/well for 1 h at room temperature. Then, the cells were incubated with mouse monoclonal antibodies to cor-antigen HCV, don C7-50 (Source: Affinity BioReagents; Catalogue: MA1-080) (100 μl/well, working dilution—1:500 in 10% fetal calf serum in PBS solution) for 2 h at 37° C. The cells were washed 6 times with PBS/0.05% Tween 20 solution, then, they were incubated for 1 h with goat anti-mouse immunoglobulin antibodies (conjugated with horseradish peroxidase, 100 μl/well, working dilution—1:2500 in 10% fetal calf serum in PBS solution). The cells were washed 6 times with PBS/0.05% Tween 20 solution, once with PBS solution, after that substrate (1 tablet of o-phenylenediamine (oPD)+12 ml citrate/phosphate buffer+5 μl 30% H2O2) in amount of 100 μl/well was added. The plates were kept for 30 min in the dark at room temperature. The reaction was arrested by the addition of 2N H2SO4 in amount of 100 μl/well, and optical density (wavelength 490 nm) was measured by means of multiscan plate reader Victor3 V 1420 (Perkin Elmer). IC50 values (azole concentration, lowering the level of virus RNA-replicon on 50%) for every tested azole were calculated with the help of XLfit 4 program.

[3] = Cytotoxicity in Huh7 cells (ATPLite); type: cell-based, human; conditions: human, Huh7 cells (human hepatoma cell line), 96 h incubation, read-out: CC50, nM (gT1b)
Protocol: as §1, §2

Compound | CC50 [1] [nM] | IC50 [2] [nM] | CC50 at 96 h [3] [nM] | IC50 ([2]; Hepatitis C virus, Huh-7, 72 h) [nM] | also measured
COC(=O)N[C@H](C(=O)N1CCC[C@H]1c1ncc(C#CC#Cc2ccc(-c3cnc([C@@H]4CCCN4C(=O)[C@@H](NC(=O)OC)C(C)C)[nH]3)cc2)[nH]1)C(C)C [1.1•2HCl, [(1S)-1-[[(2S)-2-[5-[4-[4-[2-[(2S)-1-[(2S)-2-[(Methoxycarbonyl)amino]-3-methyl-1-oxobutyl]-2-pyrrolidinyl]-1H-imidazol-5-yl]-1,3-butadiynyl]phenyl]-1H-imidazol-2-yl]-1-pyrrolidinyl]carbonyl]-2-methylpropyl]-carbamic acid methyl ester dihydrochloride] |  |  |  |  | CC50 ([1]; dihydrochloride): 85100 nM; IC50 ([2]; dihydrochloride): 0.0034 nM
COC(=O)N[C@H](C(=O)N1CCC[C@H]1c1ncc(-c2ccc(C#CC#Cc3cnc([C@@H]4CCCN4C(=O)[C@@H](NC(=O)OC)C(C)C)[nH]3)cc2)[nH]1)c1ccccc1 [1.3•2HCl, Methyl (5)-[(S)-2-(5-{4-[4-(2-{(S)-1-[(S)-2-(methoxycarbonylamino)-3-methylbutanoyl]pyrrolidin-2-yl}-3H-imidazol-4-yl)buta-1,3-diynyl]phenyl}-1H-imidazol-2-yl)pyrrolidin-1-yl]-2-oxo-1-phenylethylcarbamate dihydrochloride] | > 10000 | 0.0054 |  |  | 
COC(=O)N[C@H](C(=O)N1CCC[C@H]1c1ncc(C#CC#Cc2ccc3cc(-c4cnc([C@@H]5CCCN5C(=O)[C@@H](NC(=O)OC)C(C)C)[nH]4)ccc3c2)[nH]1)C(C)C [1.6•2HCl, Methyl [(S)-1-((S)-2-{5-[2-(4-{2-[(S)-1-((S)-2-methoxycarbonylamino-3-methyl-butyryl)-pyrrolidin-2-yl]-3H-imidazol-4-yl}-buta-1,3-diynyl)-naphthalen-6-yl]-1H-imidazol-2-yl}-pyrrolidine-1-carbonyl)-2-methyl-propyl]-carbamate dihydrochloride] |  |  | > 10000 | 0.0046 | 
COC(=O)N[C@H](C(=O)N1CCC[C@H]1c1ncc(C#CC#Cc2cccc3c(-c4cnc([C@@H]5CCCN5C(=O)[C@@H](NC(=O)OC)C(C)C)[nH]4)cccc23)[nH]1)C(C)C [1.7•2HCl, Methyl [(S)-1-((S)-2-{5-[5-(4-{2-[(S)-1-((S)-2-methoxycarbonylamino-3-methyl-butyryl)-pyrrolidin-2-yl]-3H-imidazol-4-yl}-buta-1,3-diynyl)-naphthalen-1-yl]-1H-imidazol-2-yl}-pyrrolidine-1-carbonyl)-2-methyl-propyl]-carbamate dihydrochloride] |  |  | > 10000 | 0.0036 | 
COC(=O)N[C@H](C(=O)N1CCC[C@H]1c1ncc(C#CC#Cc2ccc(-c3cnc([C@@H]4CCCN4C(=O)[C@@H](NC(=O)OC)C(C)C)[nH]3)c3ccccc23)[nH]1)C(C)C [1.8•2HCl, Methyl [(S)-1-((S)-2-{5-[4-(4-{2-[(S)-1-((S)-2-methoxycarbonylamino-3-methyl-butyryl)-pyrrolidin-2-yl]-3H-imidazol-4-yl}-buta-1,3-diynyl)-naphthalen-1-yl]-1H-imidazol-2-yl}-pyrrolidine-1-carbonyl)-2-methyl-propyl]-carbamate dihydrochloride] |  |  | > 10000 | 0.0048 | 
COC(=O)N[C@H](C(=O)N1CCC[C@H]1c1nc(C#CC#Cc2ccc(-c3c[nH]c([C@@H]4CCCN4C(=O)[C@@H](NC(=O)OC)C(C)C)n3)s2)c[nH]1)C(C)C [1.9•2HCl, [(S)-1-((S)-2-{4-[4-(5-{2-[(S)-1-((S)-2-Methoxycarbonylamino-3-methyl-butyryl)-pyrrolidin-2-yl]-1H-imidazol-4-yl}-thiophen-2-yl)-buta-1,3-diynyl]-1H-imidazol-2-yl}-pyrrolidine-1-carbonyl)-2-methyl-propyl]-carbamic acid methyl ester dihydrochloride] |  |  | > 10000 | 0.0032 | 
COC(=O)N[C@H](C(=O)N1CCC[C@H]1c1ncc(C#CC#Cc2csc3c(-c4cnc([C@@H]5CCCN5C(=O)[C@@H](NC(=O)OC)C(C)C)[nH]4)csc23)[nH]1)C(C)C [1.10•2HCl, Methyl [(S)-1-((S)-2-{5-[6-(4-{2-[(S)-1-((S)-2-Methoxycarbonylamino-3-methyl-butyryl)-pyrrolidin-2-yl]-3H-imidazol-4-yl}-buta-1,3-diynyl)-thieno[3,2-b]thiophen-3-yl]-1H-imidazol-2-yl}-pyrrolidine-1-carbonyl)-2-methyl-propyl]-carbamate dihydrochloride] |  |  | > 10000 | 0.002 | 
COC(=O)N[C@H](C(=O)N1CCC[C@H]1c1ncc(C#CC#Cc2ccc(-c3cnc([C@@H]4CCCN4C(=O)[C@@H](NC(=O)OC)C(C)C)[nH]3)cc2)[nH]1)C(C)C [Compound 1.1, [(1S)-1-[[(2S)-2-[5-[4-[4-[2-[(2S)-1-[(2S)-2-[(methoxycarbonyl)amino]-3-methyl-1-oxobutyl]-2-pyrrolidinyl]-1H-imidazol-5-yl]-1,3-butadiynyl]phenyl]-1H-imidazol-2-yl]-1-pyrrolidinyl]carbonyl]-2-methylpropyl]-carbamic acid methyl ester] | > 10000 |  |  | 0.0031 | 
Methyl (R)-[(S)-2-(5-{4-[4-(2-{(S)-1-[(S)-2-(methoxycarbonylamino)-3-methylbutanoyl]pyrrolidin-2-yl}-3H-imidazol-4-yl)buta-1,3-diynyl]phenyl}-1H-imidazol-2-yl)pyrrolidin-1-yl]-2-oxo-1-phenylethylcarbamate dihydrochloride [1.4•2HCl] | > 10000 | 0.0018 |  |  | 
Methyl (S)-[(S)-2-(5-{4-[4-(2-{(S)-1-[(S)-2-(methoxycarbonylamino)-3-methylbutanoyl]pyrrolidin-2-yl}-3H-imidazol-4-yl)buta-1,3-diynyl]phenyl}-1H-imidazol-2-yl)pyrrolidin-1-yl]-2-oxo-1-phenylethylcarbamate dihydrochloride [1.5•2HCl] | > 10000 | 0.0082 |  |  | 
